Consider 1 compound from PMC5218480 (PLoS ONE, 2017).

The assay concerns MV-4-11 cells. The assay is described as follows: Gene expression microarray analysis (Affymetrix PrimeView) and GSEA. The format is cell-based, human. On the set-up: RFU PODN (11730768_x_at) / Fold change /veh PODN (11730768_x_at) / RFU LINC00158 (11744669_a_at) / Fold change /veh LINC00158 (11744669_a_at) / RFU DUSP10 (11751237_a_at) / Fold change /veh DUSP10 (11751237_a_at) / RFU ID3 (11757404_x_at) / Fold change /veh ID3 (11757404_x_at) / RFU PLEKHG5 (11737974_s_at) / Fold change /veh PLEKHG5 (11737974_s_at) / RFU LRRC4B (11730491_at) / Fold change /veh LRRC4B (11730491_at) / RFU GIMAP4 (11747438_a_at) / Fold change /veh GIMAP4 (11747438_a_at) / RFU KRT8 (11758183_x_at) / Fold change /veh KRT8 (11758183_x_at) / RFU CNN1 (11734310_a_at) / Fold change /veh CNN1 (11734310_a_at) / RFU VPS37D (11726825_at) / Fold change /veh VPS37D (11726825_at) / RFU C10orf10 (11716522_x_at) / Fold change /veh C10orf10 (11716522_x_at) / RFU KIR2DL2 /// KIR2DL4 /// KIR2DL5A /// KIR2DL5B /// KIR2DS1 /// KIR2DS2 /// KIR2DS3 /// KIR2DS4 /// KIR3DL3 /// KIR3DL3 /// KIR3DS1 (11738374_at) / Fold change /veh KIR2DL2 /// KIR2DL4 /// KIR2DL5A /// KIR2DL5B /// KIR2DS1 /// KIR2DS2 /// KIR2DS3 /// KIR2DS4 /// KIR3DL3 /// KIR3DL3 /// KIR3DS1 (11738374_at) / RFU C1QL1 (11718748_at) / Fold change /veh C1QL1 (11718748_at) / RFU TMPRSS4 (11747572_a_at) / Fold change /veh TMPRSS4 (11747572_a_at) / RFU HAMP (11756126_x_at) / Fold change /veh HAMP (11756126_x_at) / RFU RNFT2 (11725882_a_at) / Fold change /veh RNFT2 (11725882_a_at) / RFU NR4A2 (11747474_a_at) / Fold change /veh NR4A2 (11747474_a_at) / RFU ABCC12 (11746883_a_at) / Fold change /veh ABCC12 (11746883_a_at) / RFU TMEM136 (11760407_x_at) / Fold change /veh TMEM136 (11760407_x_at) / RFU CLDN22 /// WWC2 (11732394_at) / Fold change /veh CLDN22 /// WWC2 (11732394_at) / RFU HLA-DPB1 (11760878_x_at) / Fold change /veh HLA-DPB1 (11760878_x_at) / RFU SPINT1 (11716480_a_at) / Fold change /veh SPINT1 (11716480_a_at) / RFU GAP43 (11754022_s_at) / Fold change /veh GAP43 (11754022_s_at) / RFU A4GNT (11735810_at) / Fold change /veh A4GNT (11735810_at) / RFU PRB3 (11715151_x_at) / Fold change /veh PRB3 (11715151_x_at) / RFU TUBB4B (11761932_at) / Fold change /veh TUBB4B (11761932_at) / RFU CAPN14 (11732068_a_at) / Fold change /veh CAPN14 (11732068_a_at) / RFU TMCC2 (11721928_a_at) / Fold change /veh TMCC2 (11721928_a_at) / RFU IRGQ (11745062_a_at) / Fold change /veh IRGQ (11745062_a_at) / RFU FAM174B (11720279_a_at) / Fold change /veh FAM174B (11720279_a_at) / RFU TMPRSS4 (11748680_a_at) / Fold change /veh TMPRSS4 (11748680_a_at) / RFU FAM212B (11763350_a_at) / Fold change /veh FAM212B (11763350_a_at) / RFU PLEKHG5 (11743358_a_at) / Fold change /veh PLEKHG5 (11743358_a_at) / RFU ZSCAN30 (11745921_a_at) / Fold change /veh ZSCAN30 (11745921_a_at) / RFU CMKLR1 (11741424_a_at) / Fold change /veh CMKLR1 (11741424_a_at) / RFU LOC101060620 /// MAPK8IP1 (11723275_at) / Fold change /veh LOC101060620 /// MAPK8IP1 (11723275_at) / RFU SPTSSB (11747773_x_at) / Fold change /veh SPTSSB (11747773_x_at) / RFU PRSS12 (11739890_at) / Fold change /veh PRSS12 (11739890_at) / RFU BIN1 (11741810_x_at) / Fold change /veh BIN1 (11741810_x_at) / RFU WNT11 (11732464_a_at) / Fold change /veh WNT11 (11732464_a_at) / RFU C10orf10 (11716521_a_at) / Fold change /veh C10orf10 (11716521_a_at) / RFU C5orf56 (11738089_at) / Fold change /veh C5orf56 (11738089_at) / RFU CYB561 (11721691_x_at) / Fold change /veh CYB561 (11721691_x_at) / RFU ANKRD19P (11752326_a_at) / Fold change /veh ANKRD19P (11752326_a_at) / RFU OR2T12 /// OR2T33 /// OR2T8 (11738714_s_at) / Fold change /veh OR2T12 /// OR2T33 /// OR2T8 (11738714_s_at) / RFU VCAN (11748164_a_at) / Fold change /veh VCAN (11748164_a_at) / RFU JSRP1 (11732532_at) / Fold change /veh JSRP1 (11732532_at) / RFU KRTAP10-11 (11738290_x_at) / Fold change /veh KRTAP10-11 (11738290_x_at) / RFU MYO3A (11730013_a_at) / Fold change /veh MYO3A (11730013_a_at) / RFU EBF3 (11725865_a_at) / Fold change /veh EBF3 (11725865_a_at) / RFU CAMK2N1 (11719241_x_at) / Fold change /veh CAMK2N1 (11719241_x_at) / RFU C5orf56 (11738088_a_at) / Fold change /veh C5orf56 (11738088_a_at) / RFU OLFML3 (11715873_a_at) / Fold change /veh OLFML3 (11715873_a_at) / RFU LOC100653217 /// NTM (11731650_a_at) / Fold change /veh LOC100653217 /// NTM (11731650_a_at) / RFU MAPK11 (11762145_a_at) / Fold change /veh MAPK11 (11762145_a_at) / RFU FIZ1 (11724087_x_at) / Fold change /veh FIZ1 (11724087_x_at) / RFU OASL (11726364_x_at) / Fold change /veh OASL (11726364_x_at) / RFU SOX15 (11748057_x_at) / Fold change /veh SOX15 (11748057_x_at) / RFU CD79A (11719716_a_at) / Fold change /veh CD79A (11719716_a_at) / RFU HIST1H1D (11736915_at) / Fold change /veh HIST1H1D (11736915_at) / RFU CASKIN2 (11723855_a_at) / Fold change /veh CASKIN2 (11723855_a_at) / RFU LOC730098 (11760151_x_at) / Fold change /veh LOC730098 (11760151_x_at) / RFU OR4N2 (11742367_at) / Fold change /veh OR4N2 (11742367_at) / RFU PRRT2 (11749266_a_at) / Fold change /veh PRRT2 (11749266_a_at) / RFU SNX32 (11753110_a_at) / Fold change /veh SNX32 (11753110_a_at) / RFU CDHR5 (11726645_a_at) / Fold change /veh CDHR5 (11726645_a_at) / RFU RCAN1 (11760418_a_at) / Fold change /veh RCAN1 (11760418_a_at) / RFU FAM167A (11723789_a_at) / Fold change /veh FAM167A (11723789_a_at) / RFU FAM26E (11764081_at) / Fold change /veh FAM26E (11764081_at) / RFU ISYNA1 (11749810_s_at) / Fold change /veh ISYNA1 (11749810_s_at) / RFU ACY1 (11761880_at) / Fold change /veh ACY1 (11761880_at) / RFU 11764098_at / Fold change /veh 11764098_at / RFU SAMD14 (11745864_x_at) / Fold change /veh SAMD14 (11745864_x_at) / RFU NPB (11741838_a_at) / Fold change /veh NPB (11741838_a_at) / RFU TMPRSS6 (11731388_a_at) / Fold change /veh TMPRSS6 (11731388_a_at) / RFU KRTAP10-2 (11738614_at) / Fold change /veh KRTAP10-2 (11738614_at) / RFU ARHGAP8 /// PRR5-ARHGAP8 (11727945_x_at) / Fold change /veh ARHGAP8 /// PRR5-ARHGAP8 (11727945_x_at) / RFU KRTAP5-7 /// NADSYN1 (11734609_at) / Fold change /veh KRTAP5-7 /// NADSYN1 (11734609_at) / RFU RASL12 (11751679_a_at) / Fold change /veh RASL12 (11751679_a_at) / RFU CDKN2B (11736163_a_at) / Fold change /veh CDKN2B (11736163_a_at) / RFU PRF1 (11729649_at) / Fold change /veh PRF1 (11729649_at) / RFU, ZNF638 /// ZNF638-IT1 / Fold change vs veh, ZNF638 /// ZNF638-IT1 / RFU, PANK3 / Fold change vs veh, PANK3 / RFU, SH3YL1 / Fold change vs veh, SH3YL1 / RFU, ZEB2 / Fold change vs veh, ZEB2 / RFU, NRIP1 / Fold change vs veh, NRIP1 / RFU, PTTG1IP / Fold change vs veh, PTTG1IP / RFU, CAPN2 / Fold change vs veh, CAPN2 / RFU, MED14 / Fold change vs veh, MED14 / RFU, SNORA58 / Fold change vs veh, SNORA58 / RFU, C1orf63 / Fold change vs veh, C1orf63 / RFU, LRRFIP1 / Fold change vs veh, LRRFIP1 / RFU, NDUFAF7 / Fold change vs veh, NDUFAF7 / RFU, SLC12A2 / Fold change vs veh, SLC12A2 / RFU, IBTK / Fold change vs veh, IBTK / RFU, ESF1 / Fold change vs veh, ESF1 / Fold change vs veh, TMEM50B / RFU, TAOK1 / Fold change vs veh, TAOK1 / RFU, ACBD3 / Fold change vs veh, ACBD3 / RFU, TMA16 / Fold change vs veh, TMA16 / RFU, RWDD3 / Fold change vs veh, RWDD3 / RFU, BCAT1 / Fold change vs veh, BCAT1 / RFU, EDEM3 / Fold change vs veh, EDEM3 / RFU, TMEM33 / Fold change vs veh, TMEM33 / RFU, WDR75 / Fold change vs veh, WDR75 / RFU, AHCTF1 / Fold change vs veh, AHCTF1 / RFU, TFRC / Fold change vs veh, TFRC / RFU, ZDHHC17 / Fold change vs veh, ZDHHC17 / RFU, NOM1 / Fold change vs veh, NOM1 / RFU, ARL8B / Fold change vs veh, ARL8B / RFU, ZBTB11 / Fold change vs veh, ZBTB11 / RFU, TAMM41 / Fold change vs veh, TAMM41 / RFU, KIAA1704 /// LOC100996395 / Fold change vs veh, KIAA1704 /// LOC100996395 / RFU, ING1 / Fold change vs veh, ING1 / RFU, TRMT61B / Fold change vs veh, TRMT61B / RFU, FUBP3 / Fold change vs veh, FUBP3 / RFU, TP53 / Fold change vs veh, TP53 / RFU, TNKS2 / Fold change vs veh, TNKS2 / RFU, ZFP14 / Fold change vs veh, ZFP14 / RFU, ACTR2 / Fold change vs veh, ACTR2 / RFU, PPP3R1 / Fold change vs veh, PPP3R1 / RFU, PIK3R1 / Fold change vs veh, PIK3R1 / RFU, HNRNPA1 / Fold change vs veh, HNRNPA1 / RFU, RNF170 / Fold change vs veh, RNF170 / RFU, ZNF28 / Fold change vs veh, ZNF28 / RFU, RNGTT / Fold change vs veh, RNGTT / RFU, OGT / Fold change vs veh, OGT / RFU, BRD1 / Fold change vs veh, BRD1 / RFU, MARS / Fold change vs veh, MARS / RFU, ZNF655 / Fold change vs veh, ZNF655 / RFU, FAHD1 / Fold change vs veh, FAHD1 / RFU, BDP1 / Fold change vs veh, BDP1 / RFU, LRRCC1 / Fold change vs veh, LRRCC1 / RFU, ARID1A / Fold change vs veh, ARID1A / RFU, ZNF146 / Fold change vs veh, ZNF146 / RFU, ZNF330 / Fold change vs veh, ZNF330 / RFU, GPN3 / Fold change vs veh, GPN3 / RFU, C9orf123 / Fold change vs veh, C9orf123 / RFU, N4BP2L2 / Fold change vs veh, N4BP2L2 / RFU, ARFIP1 / Fold change vs veh, ARFIP1 / RFU, FAM179B / Fold change vs veh, FAM179B / RFU, BCL10 / Fold change vs veh, BCL10 / RFU, UHRF1BP1L / Fold change vs veh, UHRF1BP1L / RFU, BET1 / Fold change vs veh, BET1 / RFU, CNOT2 / Fold change vs veh, CNOT2 / RFU, ZNF268 / Fold change vs veh, ZNF268 / Fold change vs veh, ZNF507 / RFU, DGCR2 / Fold change vs veh, DGCR2 / RFU, WDSUB1 / Fold change vs veh, WDSUB1 / Fold change vs veh, HSP90B1 /// MIR3652 / RFU, ADSS / Fold change vs veh, ADSS / RFU, GK / Fold change vs veh, GK / RFU, ZNF148 / Fold change vs veh, ZNF148 / RFU, TAF9 / Fold change vs veh, TAF9 / RFU, SLC1A5 / Fold change vs veh, SLC1A5 / RFU, SLMO2 / Fold change vs veh, SLMO2 / RFU, ABCC4 / Fold change vs veh, ABCC4 / RFU, LOC101060439 /// RAP1B / Fold change vs veh, LOC101060439 /// RAP1B / RFU, RFX7 / Fold change vs veh, RFX7 / RFU, GTPBP10 / Fold change vs veh, GTPBP10 / RFU, CNEP1R1 / Fold change vs veh, CNEP1R1 / RFU, BIVM-ERCC5 /// ERCC5 / Fold change vs veh, BIVM-ERCC5 /// ERCC5 / RFU, ILF3 / Fold change vs veh, ILF3 / RFU 11762660_at / Fold change /veh 11762660_at / RFU VCAN (11757783_s_at) / Fold change /veh VCAN (11757783_s_at) / RFU DDX43 (11728927_at) / Fold change /veh DDX43 (11728927_at) / RFU KRT8 (11758188_x_at) / Fold change /veh KRT8 (11758188_x_at) / RFU NKD1 (11759106_at) / Fold change /veh NKD1 (11759106_at) / RFU SRD5A1 (11742802_a_at) / Fold change /veh SRD5A1 (11742802_a_at) / RFU TPSAB1 /// TPSB2 (11721975_s_at) / Fold change /veh TPSAB1 /// TPSB2 (11721975_s_at) / RFU GSTM3 (11746129_a_at) / Fold change /veh GSTM3 (11746129_a_at) / RFU IL23R (11737362_x_at) / Fold change /veh IL23R (11737362_x_at) / RFU TMEM51 (11727254_a_at) / Fold change /veh TMEM51 (11727254_a_at) / RFU PIWIL2 (11732686_x_at) / Fold change /veh PIWIL2 (11732686_x_at) / RFU ORM1 (11744905_x_at) / Fold change /veh ORM1 (11744905_x_at) / RFU CCDC152 (11743942_at) / Fold change /veh CCDC152 (11743942_at) / RFU ECM1 (11717891_a_at) / Fold change /veh ECM1 (11717891_a_at) / RFU IL23R (11748794_a_at) / Fold change /veh IL23R (11748794_a_at) / RFU TNFAIP8L3 (11732012_x_at) / Fold change /veh TNFAIP8L3 (11732012_x_at) / RFU MBOAT4 (11741988_at) / Fold change /veh MBOAT4 (11741988_at) / RFU 11764193_at / Fold change /veh 11764193_at / RFU TMEM53 (11763286_at) / Fold change /veh TMEM53 (11763286_at) / RFU MAGEB2 (11727129_at) / Fold change /veh MAGEB2 (11727129_at) / RFU TMEM200A (11744735_a_at) / Fold change /veh TMEM200A (11744735_a_at) / RFU CCDC152 (11751479_a_at) / Fold change /veh CCDC152 (11751479_a_at) / RFU FAM211A (11726209_a_at) / Fold change /veh FAM211A (11726209_a_at) / RFU RGS16 (11746705_a_at) / Fold change /veh RGS16 (11746705_a_at) / RFU VCAN (11755009_s_at) / Fold change /veh VCAN (11755009_s_at) / RFU RHOB (11743442_s_at) / Fold change /veh RHOB (11743442_s_at) / RFU RGS16 (11720943_a_at) / Fold change /veh RGS16 (11720943_a_at) / RFU RGS16 (11720944_at) / Fold change /veh RGS16 (11720944_at) / RFU, VPS4B / Fold change vs veh, VPS4B / RFU, CREB1 / Fold change vs veh, CREB1 / RFU, DNAJC13 / Fold change vs veh, DNAJC13 / RFU, GNAQ / Fold change vs veh, GNAQ / RFU, CDK5R1 / Fold change vs veh, CDK5R1 / RFU, ZRANB3 / Fold change vs veh, ZRANB3 / RFU, CUL4A / Fold change vs veh, CUL4A / RFU, CCNY / Fold change vs veh, CCNY / RFU, UFL1 / Fold change vs veh, UFL1 / RFU, COG3 / Fold change vs veh, COG3 / RFU, DIAPH2 / Fold change vs veh, DIAPH2 / RFU, SKA2 / Fold change vs veh, SKA2 / RFU, AFF3 / Fold change vs veh, AFF3 / RFU, LMF1 / Fold change vs veh, LMF1 / RFU, IPO11 / Fold change vs veh, IPO11 / RFU, DFFB / Fold change vs veh, DFFB / RFU, FOXP1 / Fold change vs veh, FOXP1 / RFU, CARD8 / Fold change vs veh, CARD8 / RFU, STRN3 / Fold change vs veh, STRN3 / RFU, ADK / Fold change vs veh, ADK / RFU, RASSF2 / Fold change vs veh, RASSF2 / RFU, WIPF1 / Fold change vs veh, WIPF1 / RFU, LARP1B / Fold change vs veh, LARP1B / RFU, RASA1 / Fold change vs veh, RASA1 / RFU, RB1 / Fold change vs veh, RB1 / RFU, PPFIA1 / Fold change vs veh, PPFIA1 / RFU, MAT2A / Fold change vs veh, MAT2A / RFU, CCT5 / Fold change vs veh, CCT5 / RFU, WDR92 / Fold change vs veh, WDR92 / RFU, CUX1 / Fold change vs veh, CUX1 / RFU, TTC7A / Fold change vs veh, TTC7A / RFU, TMEM135 / Fold change vs veh, TMEM135 / RFU, DEPTOR / Fold change vs veh, DEPTOR / RFU, CPM / Fold change vs veh, CPM / RFU, DNAJB6 / Fold change vs veh, DNAJB6 / RFU, CACNA2D3 / Fold change vs veh, CACNA2D3 / RFU, DTX4 / Fold change vs veh, DTX4 / RFU, TFCP2 / Fold change vs veh, TFCP2 / RFU, GMCL1 /// GMCL1P1 / Fold change vs veh, GMCL1 /// GMCL1P1 / RFU, AEBP2 / Fold change vs veh, AEBP2 / RFU, SNHG1 /// SNORD22 /// SNORD25 /// SNORD26 /// SNORD27 /// SNORD28 /// SNORD29 /// SNORD31 / Fold change vs veh, SNHG1 /// SNORD22 /// SNORD25 /// SNORD26 /// SNORD27 /// SNORD28 /// SNORD29 /// SNORD31 / Fold change (Aza/veh), C12orf56 (ProbeSet 11735607_a_at) / Fold change (ACY-1035/veh), C12orf56 (ProbeSet 11735607_a_at) / Fold change (Aza/veh), FGFR1OP (ProbeSet 11751329_s_at) / Fold change (ACY-1035/veh), FGFR1OP (ProbeSet 11751329_s_at) / Fold change (Aza/veh), VPS36 (ProbeSet 11739960_a_at) / Fold change (ACY-1035/veh), VPS36 (ProbeSet 11739960_a_at) / RFU SYPL1 (11715823_x_at) / Fold change /veh SYPL1 (11715823_x_at) / RFU IGFBP7 (11715501_s_at) / Fold change /veh IGFBP7 (11715501_s_at) / RFU REEP3 (11722064_at) / Fold change /veh REEP3 (11722064_at) / RFU IGLL1 (11728026_x_at) / Fold change /veh IGLL1 (11728026_x_at): dose or concentration left out as unconfirmed. Particulars: MV-4-11 cells, 48 hours.

With `Nc1ccc(-c2cccs2)cc1NC(=O)c1ccc2c(c1)cc(C1CC1)n2CCN1CCOCC1` [ACY-1035], the “Fold change /veh MAPK11 (11762145_a_at)” value is listed as 0.89.
